SMILES strings stand for the structures. “And” between values parts separate entries of the source, which are not always exact repeats. Equal values may be shown once. Inconclusive results and toxic doses are left out.

For this assay, the system named is CD2F1 mice, L1210 leukemia ip, survival T/C. The assay is described as follows: NCI In Vivo Anticancer Drug Screen. Data for tumor model L1210 Leukemia (intraperitoneal) in CD2F1 (CDF1) mice. The note with it: higher = longer survival. Put shortly: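 Antitumor effect is scored in animals hosting a serially transplanted tumor. Values compare compound-dosed animals against vehicle-only controls as a simple quotient.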

The mark [1] stands for this setting: endpoint: mean survival time, dose: 100.0 mg/kg/injection, schedule: Q01DX009 (ip), vehicle: saline with Tween-80.
Setting [2] is: endpoint: mean survival time, dose: 100.0 mg/kg/injection, schedule: Q04DX003 (ip), vehicle: saline with Tween-80.
The mark [3] stands for this setting: endpoint: mean survival time, dose: 200.0 mg/kg/injection, schedule: Q01DX009 (ip), vehicle: saline with Tween-80.
Where [4] appears, read: endpoint: mean survival time, dose: 200.0 mg/kg/injection, schedule: Q04DX003 (ip), vehicle: saline with Tween-80.
The mark [5] stands for this setting: endpoint: mean survival time, dose: 400.0 mg/kg/injection, schedule: Q01DX009 (ip), vehicle: saline with Tween-80.
The mark [6] stands for this setting: endpoint: mean survival time, dose: 400.0 mg/kg/injection, schedule: Q04DX003 (ip), vehicle: saline with Tween-80.
[7] abbreviates: endpoint: mean survival time, dose: 50.0 mg/kg/injection, schedule: Q01DX009 (ip), vehicle: saline with Tween-80.
[8] abbreviates: endpoint: mean survival time, dose: 100.0 mg/kg/injection, schedule: Q04DX003 (ip), vehicle: saline.
Where [9] appears, read: endpoint: mean survival time, dose: 100.0 mg/kg/injection, schedule: Q04DX002 (ip), vehicle: saline with Tween-80.

`O/N=C(/CN1CCOCC1)c1ccccc1`: the T/C runs as follows: under setting [1], 97 % of control; under setting [2], 102 % of control; under setting [3], 94 % of control; under setting [4], 96 % of control; under setting [5], 96 % of control; under setting [6], 102 % of control.

As to `CCN(CC)CC#CCCCCN(CC)CC`, the T/C runs as follows: (endpoint: mean survival time, dose: 25.0 mg/kg/injection, schedule: Q01DX009 (ip), vehicle: saline with Tween-80) 101 % of control; (endpoint: mean survival time, dose: 25.0 mg/kg/injection, schedule: Q04DX003 (ip), vehicle: saline) 96 % of control; under setting [7], 95 % of control; (endpoint: mean survival time, dose: 50.0 mg/kg/injection, schedule: Q04DX003 (ip), vehicle: saline) 94 % of control; under setting [1], 93 % of control; under setting [2], 94 % of control. Also, the T/C under setting [8] is 94 % of control.

For the molecule `O=S(=O)(c1cccc(N=C=S)c1)c1cccc(N=C=S)c1`, the T/C runs as follows: (endpoint: median survival time, dose: 6.25 mg/kg/injection, schedule: Q01DX009 (ip), vehicle: Klucel (hydroxypropylcellulose) (HPC)) 101 % of control; (endpoint: median survival time, dose: 12.5 mg/kg/injection, schedule: Q01DX009 (ip), vehicle: Klucel (hydroxypropylcellulose) (HPC)) 109 % of control; (endpoint: median survival time, dose: 25.0 mg/kg/injection, schedule: Q01DX009 (ip), vehicle: Klucel (hydroxypropylcellulose) (HPC)) 118 % of control.

Consider `O=C(O)C1CCc2c(cnn2-c2ccccc2)C1` (stereo not given), for which the T/C reads like this: under setting [9], 88 % of control; (endpoint: mean survival time, dose: 200.0 mg/kg/injection, schedule: Q04DX002 (ip), vehicle: saline with Tween-80) 100 % of control; (endpoint: mean survival time, dose: 400.0 mg/kg/injection, schedule: Q04DX002 (ip), vehicle: saline with Tween-80) 92 % of control.

As for `Cc1ccc2ccccc2[n+]1[O-]`, under setting [9], the T/C is 111 % of control.

Turning to `CC(=O)Nc1ccc(OC(=O)Nc2cccc(F)c2)cc1`, the T/C is, setting by setting: under setting [1], 91 % of control; under setting [3], 95 % of control; under setting [5], 91 % of control.

Regarding `Cc1ccc(S(=O)(=O)N/N=C/C(=O)O)cc1`, the T/C reads like this: (endpoint: mean survival time, dose: 25.0 mg/kg/injection, schedule: Q01DX009 (ip), vehicle: other) 117 % of control and 108 % of control; (endpoint: mean survival time, dose: 100.0 mg/kg/injection, schedule: Q01DX009 (ip), vehicle: other) 123 % of control; (endpoint: mean survival time, dose: 100.0 mg/kg/injection, schedule: Q04DX003 (ip), vehicle: Klucel (hydroxypropylcellulose) (HPC)) 150 % of control; under setting [2], 123 % of control; (endpoint: mean survival time, dose: 200.0 mg/kg/injection, schedule: Q01DX009 (ip), vehicle: other) 96 % of control and 102 % of control; (endpoint: mean survival time, dose: 400.0 mg/kg/injection, schedule: Q04DX003 (ip), vehicle: Klucel (hydroxypropylcellulose) (HPC)) 186 % of control. The T/C is 114 % of control (endpoint: mean survival time, dose: 600.0 mg/kg/injection, schedule: Q04DX003 (ip), vehicle: Klucel (hydroxypropylcellulose) (HPC)); 153 % of control (endpoint: mean survival time, dose: 600.0 mg/kg/injection, schedule: Q04DX003 (ip), vehicle: saline with Tween-80); 111 % of control (endpoint: median survival time, dose: 1.0 mg/kg/injection, schedule: Q03HX024 (ip), vehicle: saline); 124 % of control (endpoint: median survival time, dose: 2.0 mg/kg/injection, schedule: Q03HX016 (ip), vehicle: saline); 112 % of control (endpoint: median survival time, dose: 2.0 mg/kg/injection, schedule: Q03HX024 (ip), vehicle: saline); 124 % of control (endpoint: median survival time, dose: 4.0 mg/kg/injection, schedule: Q03HX008 (ip), vehicle: saline). In addition, the T/C (endpoint: median survival time, dose: 4.0 mg/kg/injection, schedule: Q03HX024 (ip), vehicle: saline) was 121 % of control; the T/C (endpoint: median survival time, dose: 8.0 mg/kg/injection, schedule: Q01DX009 (sc), vehicle: saline) is 102 % of control; the T/C (endpoint: median survival time, dose: 16.0 mg/kg/injection, schedule: Q01DX009 (oral), vehicle: saline) was 101 % of control; the T/C (endpoint: median survival time, dose: 16.0 mg/kg/injection, schedule: Q01DX009 (sc), vehicle: saline) is 104 % of control; the T/C (endpoint: median survival time, dose: 32.0 mg/kg/injection, schedule: Q01DX001 (sc), vehicle: saline) was 104 % of control; the T/C (endpoint: median survival time, dose: 32.0 mg/kg/injection, schedule: Q01DX009 (ip), vehicle: saline) is 166 % of control. The T/C (endpoint: median survival time, dose: 32.0 mg/kg/injection, schedule: Q01DX009 (oral), vehicle: saline) is 98 % of control; the T/C (endpoint: median survival time, dose: 32.0 mg/kg/injection, schedule: Q01DX009 (sc), vehicle: saline) was 116 % of control; the T/C (endpoint: median survival time, dose: 32.0 mg/kg/injection, schedule: Q03HX016 (ip), vehicle: saline) was 123 % of control; the T/C (endpoint: median survival time, dose: 32.0 mg/kg/injection, schedule: Q03HX024 (ip), vehicle: saline) was 92 % of control; the T/C (endpoint: median survival time, dose: 64.0 mg/kg/injection, schedule: Q01DX001 (sc), vehicle: saline) was 105 % of control; the T/C (endpoint: median survival time, dose: 64.0 mg/kg/injection, schedule: Q01DX009 (ip), vehicle: saline) was 157 % of control. The T/C is, setting by setting: (endpoint: median survival time, dose: 64.0 mg/kg/injection, schedule: Q01DX009 (oral), vehicle: saline) 102 % of control; (endpoint: median survival time, dose: 64.0 mg/kg/injection, schedule: Q01DX009 (sc), vehicle: saline) 116 % of control; (endpoint: median survival time, dose: 64.0 mg/kg/injection, schedule: Q04DX003 (ip), vehicle: saline) 164 % of control; (endpoint: median survival time, dose: 128.0 mg/kg/injection, schedule: Q01DX001 (oral), vehicle: saline) 102 % of control; (endpoint: median survival time, dose: 128.0 mg/kg/injection, schedule: Q01DX001 (sc), vehicle: saline) 104 % of control; (endpoint: median survival time, dose: 128.0 mg/kg/injection, schedule: Q01DX009 (oral), vehicle: saline) 102 % of control. For the same molecule, the T/C runs as follows: (endpoint: median survival time, dose: 128.0 mg/kg/injection, schedule: Q01DX009 (sc), vehicle: saline) 116 % of control; (endpoint: median survival time, dose: 128.0 mg/kg/injection, schedule: Q04DX003 (ip), vehicle: saline) 168 % of control; (endpoint: median survival time, dose: 128.0 mg/kg/injection, schedule: Q08DX002 (ip), vehicle: saline) 155 % of control; (endpoint: median survival time, dose: 256.0 mg/kg/injection, schedule: Q01DX001 (oral), vehicle: saline) 98 % of control; (endpoint: median survival time, dose: 256.0 mg/kg/injection, schedule: Q01DX001 (sc), vehicle: saline) 107 % of control; (endpoint: median survival time, dose: 256.0 mg/kg/injection, schedule: Q01DX009 (oral), vehicle: saline) 105 % of control. The T/C reads like this: (endpoint: median survival time, dose: 512.0 mg/kg/injection, schedule: Q01DX001 (oral), vehicle: saline) 110 % of control; (endpoint: median survival time, dose: 512.0 mg/kg/injection, schedule: Q01DX001 (sc), vehicle: saline) 112 % of control; (endpoint: median survival time, dose: 1024.0 mg/kg/injection, schedule: Q01DX001 (oral), vehicle: saline) 123 % of control.

`COC(=O)CCC(=O)c1ccc(C)cc1`: the T/C by setting is: (endpoint: mean survival time, dose: 100.0 mg/kg/injection, schedule: Q04DX003 (ip), vehicle: acetone) 94 % of control; (endpoint: mean survival time, dose: 200.0 mg/kg/injection, schedule: Q04DX003 (ip), vehicle: acetone) 104 % of control; (endpoint: mean survival time, dose: 400.0 mg/kg/injection, schedule: Q04DX003 (ip), vehicle: acetone) 98 % of control.

Take `COC(=O)C(NC=O)C(=O)OC`: the T/C reads like this: (endpoint: mean survival time, dose: 100.0 mg/kg/injection, schedule: Q01DX009 (ip), vehicle: saline) 105 % of control; under setting [8], 93 % of control; (endpoint: mean survival time, dose: 200.0 mg/kg/injection, schedule: Q01DX009 (ip), vehicle: saline) 107 % of control; (endpoint: mean survival time, dose: 200.0 mg/kg/injection, schedule: Q04DX003 (ip), vehicle: saline) 101 % of control; (endpoint: mean survival time, dose: 400.0 mg/kg/injection, schedule: Q01DX009 (ip), vehicle: saline) 117 % of control; (endpoint: mean survival time, dose: 400.0 mg/kg/injection, schedule: Q04DX003 (ip), vehicle: saline) 95 % of control.

Turning to `CP(=O)(c1ccccc1)c1ccccc1`, the T/C was 100 % of control (endpoint: mean survival time, dose: 100.0 mg/kg/injection, schedule: Q01DX001 (ip), vehicle: saline with Tween-80); 103 % of control (endpoint: mean survival time, dose: 200.0 mg/kg/injection, schedule: Q01DX001 (ip), vehicle: saline with Tween-80); 98 % of control (endpoint: mean survival time, dose: 400.0 mg/kg/injection, schedule: Q01DX001 (ip), vehicle: saline with Tween-80).

Consider `Cc1ccccc1CC(C)c1ccccc1` (stereo not given), for which the T/C runs as follows: under setting [7], 101 % of control; under setting [1], 101 % of control; under setting [2], 90 % of control; under setting [3], 90 % of control; under setting [4], 88 % of control.

Regarding `Cc1ccccc1N=Cc1ccc(N(C)C)cc1`, the T/C under setting [1] was 96 % of control; the T/C under setting [2] is 97 % of control; the T/C under setting [3] is 95 % of control; the T/C under setting [4] was 103 % of control; the T/C under setting [5] is 90 % of control; the T/C under setting [6] is 98 % of control.

Source of the values: PubChem BioAssay AID256 (DTP/NCI, 2004).
